Test results reported in patent US20090123979A1, “Methods of reducing the inhibitory effect of a tannin on the enzymatic hydrolysis of cellulosic material” (Novozymes, Inc., priority 2007, published 2009).

Tests used:
[1] = biological target: T1, Trichoderma reesei CEL7B endoglucanase I (Trichoderma reesei, UniProt P07981); experiment: CMC hydrolysis by CEL7B endoglucanase I with tannic acid; assay type: biochemical; conditions: 1 mM tannic acid, 50° C., 4 hours
T1 construct: made in house; host or cells: Aspergillus oryzae JaL250
T1 sequence (P07981 23-459): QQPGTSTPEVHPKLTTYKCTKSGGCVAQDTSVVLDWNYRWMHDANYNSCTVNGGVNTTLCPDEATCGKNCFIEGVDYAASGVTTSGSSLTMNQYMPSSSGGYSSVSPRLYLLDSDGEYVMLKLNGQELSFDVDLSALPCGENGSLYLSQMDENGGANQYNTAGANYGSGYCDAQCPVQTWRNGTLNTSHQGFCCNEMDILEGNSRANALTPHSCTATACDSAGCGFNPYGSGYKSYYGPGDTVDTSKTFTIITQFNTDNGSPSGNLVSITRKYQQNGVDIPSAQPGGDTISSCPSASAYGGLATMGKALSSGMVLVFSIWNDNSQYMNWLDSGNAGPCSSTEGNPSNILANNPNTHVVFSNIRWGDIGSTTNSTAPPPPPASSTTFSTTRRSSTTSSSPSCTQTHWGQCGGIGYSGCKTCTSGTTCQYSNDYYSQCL
Procedure: (§1) The effect of tannic acid on Trichoderma reesei CEL7B endoglucanase I and Trichoderma reesei CEL5A endoglucanase II was also evaluated using carboxymethylcellulose (CMC) as substrate. The hydrolysis reactions were conducted in duplicate using the “mini-plate-scale” hydrolysis procedure described in Example 33, except that 1 mM tannic acid and 10 to 20 g of carboxymethylcellulose (CMC) and 1 to 20 mg of enzyme per liter 50 mM sodium acetate pH 5.0 were used at 50° C. for 4 hours. Soluble reducing sugars were analyzed by a p-hydroxybenzoic acid hydrazide (PHBAH) assay according to the method of Lever, 1972, Anal. Biochem. 47: 273-279, instead of by HPLC as described in Examples 30 and 33. Reactions without the addition of the enzymes served as controls to correct background absorption. Spectrophotometric measurements were performed using a SPECTRAMAX™ 340PC reader (Molecular Devices Corp., Sunnyvale, Calif., USA) with COSTAR® 96-well microplates (Cole-Parmer Instrument Co, Vernon Hills, Ill., USA).

[2] = biological target: T2, Trichoderma reesei CEL5A endoglucanase II (Trichoderma reesei, UniProt P07982); experiment: CMC hydrolysis by CEL5A endoglucanase II with tannic acid; assay type: biochemical; conditions: 1 mM tannic acid, 50° C., 4 hours
T2 construct: made in house
T2 sequence (P07982 22-418): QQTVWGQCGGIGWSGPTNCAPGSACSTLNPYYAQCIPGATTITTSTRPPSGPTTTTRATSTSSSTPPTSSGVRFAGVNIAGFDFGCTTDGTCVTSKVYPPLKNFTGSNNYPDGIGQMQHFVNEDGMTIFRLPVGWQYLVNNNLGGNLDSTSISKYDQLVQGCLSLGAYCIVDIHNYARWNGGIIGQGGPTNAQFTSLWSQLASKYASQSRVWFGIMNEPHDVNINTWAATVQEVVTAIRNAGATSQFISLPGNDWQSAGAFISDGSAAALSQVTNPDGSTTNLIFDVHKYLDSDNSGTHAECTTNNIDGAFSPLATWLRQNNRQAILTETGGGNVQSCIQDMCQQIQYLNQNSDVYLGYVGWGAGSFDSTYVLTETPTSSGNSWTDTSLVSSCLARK
Procedure: as §1

SMILES: O=C(OC[C@H]1O[C@@H](OC(=O)c2cc(O)c(O)c(OC(=O)c3cc(O)c(O)c(O)c3)c2)[C@H](OC(=O)c2cc(O)c(O)c(OC(=O)c3cc(O)c(O)c(O)c3)c2)[C@@H](OC(=O)c2cc(O)c(O)c(OC(=O)c3cc(O)c(O)c(O)c3)c2)[C@@H]1OC(=O)c1cc(O)c(O)c(OC(=O)c2cc(O)c(O)c(O)c2)c1)c1cc(O)c(O)c(OC(=O)c2cc(O)c(O)c(O)c2)c1 [tannic acid, Tannic acid]
- effect on CMC hydrolysis by CEL7B endoglucanase I [1]: significantly inhibited
- effect on CMC hydrolysis by CEL5A endoglucanase II [2]: significantly inhibited
